# Measured values published in a melting point compilation (Tetko et al.; mined from patent text by program, amines drawn as free bases though some values may be those of a salt).
row,SMILES,melting point [°C]
1,CCCCCCCCCCCCCCCCCCOc1cc(N(CC(=O)OC)CC(=O)OC)cc(S(=O)CC(=O)OC)c1 (stereo not given),81 to 83
2,CC(=O)c1cccc(C2=C(c3ccc(S(C)(=O)=O)cc3)OC(C)(C)C2=O)c1,189 to 190
3,COc1cc(COc2nn(C)cc2C=O)ccc1OCc1nc(-c2ccccc2)oc1C,123 to 124
4,COc1cc(OC2CCN(C(=O)Cc3c[nH]cn3)CC2)ccc1CC(=O)N1CCN(c2ccccc2C)CC1C(N)=O (stereo not given),120 to 124
5,CC(C)(C)OC(=O)NCCCn1cnc2c(N)nc3ccccc3c21,196 to 198
6,CN1Cc2c(Cl)ncn2-c2cccc(Cl)c2C1=O,211 to 212
7,C[C@@H](NC(=O)[C@@H](NC(=O)[C@H](C/C=C/c1ccc(-c2ccccc2)c(F)c1)CC(=O)OC(C)(C)C)C(C)(C)C)c1ccccc1,165 to 168
8,C#Cc1ccc2c(c1)C(Cc1ccnc(F)c1)(Cc1ccnc(F)c1)c1cccnc1-2,139 to 140
9,NC(=O)C1CCc2sc3ccccc3c2C1 (stereo not given),153 to 155
10,COCCOc1ccc([N+](=O)[O-])cc1F,62 to 63
11,CCOC(=O)c1ccc2n1Cc1ccccc1N1CCN(C)CC21 (stereo not given),128 to 130
12,Nc1cccnc1C(=O)NO,131 to 133
13,CC1(C)C2C=CC3(C)C(C2)C(=O)CCC13O[Si](C)(C)C (stereo not given),73 to 76
14,O=C(O)Cc1coc2cc(OCc3ccccc3OCc3ccc(C(F)(F)F)cc3)ccc12,126 to 127
15,CC(C)(C)OC(=O)C1CCCC(c2ccccc2)N1 (stereo not given),68
16,COc1ccccc1N1CCN(CC2=Cc3ccccc3CC2)CC1,84 to 85
17,Cc1ccc(S(=O)(=O)C(CCl)Sc2cccc(C)c2)cc1 (stereo not given),80 to 97
18,O=C(CCc1cnoc1-c1ccccc1)Nc1ccc(-n2ccnc2)cc1,176 to 177
19,Brc1ccc(N2CCN(c3ccncc3)CC2)nc1,176 to 180
20,Cc1[nH]c(-c2cccc(C(F)(F)F)c2)nc1C=O,180
21,CCOC(=O)C(=O)c1cc(Cl)cc2cccnc12,107 to 110
22,CC(=O)C(=Cc1cccc(C#N)c1)C(C)=O,63 to 64
23,COc1cc2c(cc1OC)C(c1ccc(Cl)cc1)=NN=C(C)C2,188 to 198
24,CCc1cccc2c3c([nH]c12)C(CC)(CCOC(C)=O)OCC3 (stereo not given),126 to 127

row,SMILES,melting point [°C]
1,CCC(O)(C#CC(=O)c1ccc(SC)cc1)CC,49 to 50
2,Fc1ccc([C@H]2CC[C@H](N3CCC(Cc4cc(F)ccc4F)CC3)CC2)cc1,80 to 81
3,Cc1nc(C(F)(F)F)c(C(=O)Nc2ccccc2-c2cc(F)c(F)c(F)c2)s1,148 to 152
4,CON(C)C(=O)CC(c1cccc(Br)c1)c1ccccc1C (stereo not given),89
5,CCCc1nc2c(N)nc(C)c(C)c2n1CCCCN(O)C(=O)Nc1ccccc1,159 to 160
6,CC(Cl)(Cl)C(NC(=O)c1ccc(C(F)(F)F)cc1)NC(=NS(=O)(=O)C(F)(F)F)Nc1cccnc1 (stereo not given),214 to 215
7,CNc1nc(-c2ccccc2)c(-c2nc3ccccc3c(=O)n2-c2ccccc2C)s1,220 to 225
8,O=[N+]([O-])c1ccc2nc(-c3ccco3)[nH]c2c1,228 to 229
9,O=C(O)c1ccc2oc3ncccc3c(=O)c2c1,293 to 294
10,CC(=O)OC1CSC(Oc2ccc3oc(C)nc3c2)C(OC(C)=O)C1OC(C)=O (stereo not given),168
11,O=C(O)Cc1cccc2c(-c3ccc(Cl)cc3)noc12,110 to 125
12,Cc1ccc2[nH]c3c(C(=O)O)cccc3c2c1Cl,305
13,Cc1cc2cc(CN3CCCCCC3)cnc2cc1NC(=O)c1ccc(-c2ccc(Cl)cc2)cc1F,209
14,CC(=O)N(CC(=O)O)C[C@H]1O[C@H](c2ccccc2Cl)c2cc(Cl)ccc2N(Cc2ccccc2)C1=O (relative stereo),143 to 145
15,Cc1cccc2sc(NN)nc12,161 to 166
16,CCC(CC(O)C(CC1CCCCC1)NC(=O)C(Cc1c[nH]cn1)NC(=O)C(Cc1ccccc1)C(=O)NO)C(C)C (stereo not given),123
17,COC(=O)CCn1c(=O)n(CCN2CCN(c3ccc(F)cc3)CC2)c(=O)c2cscc21,165 to 166
18,CC(C)C(C)OC(=S)c1ccc(N)cc1Cl (stereo not given),43 to 46
19,O=Cc1ccc2ccn(C3CCN(CCc4ccccc4F)CC3)c2c1,130 to 131
20,COC(=O)c1cc(Nc2ccccc2)c(Nc2ccccc2)cc1C(=O)OC,178
21,Cc1cc(C#N)cc(C(=O)Nc2cccc(Cl)n2)n1,222
22,CC1CC(c2cc3c(F)cccc3s2)CCN1 (stereo not given),63 to 65
23,CC(CC(C)C1CCC2C3C(O)CC4CC(O)CCC4(C)C3CC(O)C12C)C(=O)O (stereo not given),151 to 153
24,Cc1cccc(/C=C/C(=O)Nc2cccc(NC(=N)c3ccccc3)c2)c1,179 to 180

row,SMILES,melting point [°C]
1,O=c1c2cc(SC(F)(F)F)ccc2ccn2cccc12,155 to 159
2,CCCCc1c2c(nc3c1CCc1cc4nc(C#N)c(N)cc4nc1-3)C(=O)CCC2,> 300
3,COc1nc(SCc2ccccc2)ncc1Br,48 to 49
4,CC(C)(C)OC(=O)N1CCCN(c2ccc(C(C)(C)C)cc2)CC1,62 to 64
5,CC(=O)c1sccc1S(=O)(=O)N(C)c1cccc2cc(-c3nccs3)[nH]c12,156
6,Cc1ccc(C(=O)O)c([N+](=O)[O-])c1,156 to 157
7,C[C@@H](c1ccc(-c2ccn(CC(F)(F)F)c(=O)c2)cc1)N1CC[C@](CC(C)(C)O)(c2ccccc2)OC1=O,144 to 146
8,CC(C)Sc1cc([Si](C)(C)C)oc1C(=O)O,181 to 183
9,CCOC(=O)c1cc(CC)sc1Nc1c(Cl)cccc1[N+](=O)[O-],67 to 70
10,CCOC(=O)c1ccc(-c2cnc3c(c2)N(Cc2ccccc2)CCN3)cc1,178 to 179
11,O=C1c2ccccc2C(=O)N1n1cccc1Cl,130 to 132
12,Cn1nnc2ccc(C(c3ccc(Cl)cc3)n3cncn3)cc21 (stereo not given),130 to 135
13,CC12C(=CCC3C1CCC1(C)C3CCC13OCCO3)CC(O)CC2O (stereo not given),205 to 206
14,CC1(C)CCC(Cc2ccc(Cl)cc2)C1(O)Cn1ncnc1S (stereo not given),179 to 180
15,CCCCNC(=O)[C@@H](C[C@H](O)[C@@H](N)CC1CCCCCC1)C(C)C,81 to 82
16,O=C(O)c1cc(OCCCOc2ccc(OCc3ccccc3)cc2)cc(OCCCOc2ccc(OCc3ccccc3)cc2)c1,139 to 140
17,CCN1CCN(C(C(=O)N(C)CCO)c2ccc(Nc3nc(-c4cccc(NC(=O)c5cc6c(s5)CCCCC6)c4C)cn(C)c3=O)cc2)CC1 (stereo not given),163 to 165
18,Nc1ccc(Oc2ccc(Cl)c(Cl)c2)nc1,78 to 79.3
19,COc1ccc(C(=O)Nc2ccccc2)cc1NS(=O)(=O)c1ccc(C#N)cc1,206 to 208
20,CN(C(=O)c1ccc2nonc2c1)C1CCOCC1,160 to 162
21,"CCC(=O)OC(C)c1ccc(-c2ccc(OCc3ccccc3)cc2)cc1 (single isomer, unassigned; (+))",125
22,CC1=CC(C=O)(NC(c2ccccc2)(c2ccccc2)c2ccccc2)NC=C1 (stereo not given),213
